Data on 18 compounds can be found in ChEMBL document CHEMBL2346592, “Arylglycine derivatives as potent transient receptor potential melastatin 8 (TRPM8) antagonists” (Bioorg Med Chem Lett, 2013).

Assay [1] concerns the target Transient receptor potential M8 protein (Canis lupus familiaris, UniProt Q1A7N1). Briefly: Antagonist activity at dog TRPM8 expressed in HEK293 cells assessed as inhibition of icilin-induced calcium influx incubated for 5 mins prior to icilin induction measured after 5 mins by fluorescence assay. In kind it is cell-based.
In a further assay the test system is Rattus norvegicus. Nature of the assay: Anti-cold hypersensitive activity in rat assessed as inhibition of icilin-induced wet-dog shaking at 30 mg/kg, po measured for 10 mins relative to control. It counts as functional.

The structures appear in SMILES notation.

Transient receptor potential M8 protein, sequence (Q1A7N1 whole entry): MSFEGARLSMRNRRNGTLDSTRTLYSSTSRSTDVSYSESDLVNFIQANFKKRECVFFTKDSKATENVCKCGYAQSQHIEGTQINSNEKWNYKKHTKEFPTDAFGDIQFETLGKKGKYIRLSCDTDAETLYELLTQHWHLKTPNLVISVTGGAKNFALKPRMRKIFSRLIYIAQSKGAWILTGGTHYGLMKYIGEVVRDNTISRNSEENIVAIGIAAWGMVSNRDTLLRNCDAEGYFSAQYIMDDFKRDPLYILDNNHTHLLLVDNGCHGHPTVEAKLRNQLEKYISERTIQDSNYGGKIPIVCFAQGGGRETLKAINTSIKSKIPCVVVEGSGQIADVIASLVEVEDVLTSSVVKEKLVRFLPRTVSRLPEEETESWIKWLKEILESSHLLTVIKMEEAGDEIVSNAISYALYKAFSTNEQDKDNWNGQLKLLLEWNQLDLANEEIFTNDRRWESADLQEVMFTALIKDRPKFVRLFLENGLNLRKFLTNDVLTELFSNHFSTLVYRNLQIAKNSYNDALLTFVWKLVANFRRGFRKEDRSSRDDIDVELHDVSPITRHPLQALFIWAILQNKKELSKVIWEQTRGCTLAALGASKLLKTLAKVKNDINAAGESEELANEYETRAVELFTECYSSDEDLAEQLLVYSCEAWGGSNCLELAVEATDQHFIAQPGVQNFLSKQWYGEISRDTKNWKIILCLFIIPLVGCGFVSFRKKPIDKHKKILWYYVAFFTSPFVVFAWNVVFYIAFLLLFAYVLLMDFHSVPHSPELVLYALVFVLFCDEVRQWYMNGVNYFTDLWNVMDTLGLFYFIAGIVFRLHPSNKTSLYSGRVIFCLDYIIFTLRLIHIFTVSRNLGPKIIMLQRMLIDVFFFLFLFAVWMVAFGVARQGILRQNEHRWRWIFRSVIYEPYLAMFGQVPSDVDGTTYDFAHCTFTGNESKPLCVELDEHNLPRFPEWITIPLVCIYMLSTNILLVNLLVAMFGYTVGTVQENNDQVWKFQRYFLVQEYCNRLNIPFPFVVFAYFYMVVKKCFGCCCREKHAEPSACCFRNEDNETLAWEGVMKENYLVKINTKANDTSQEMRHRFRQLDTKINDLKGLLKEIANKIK

Take `O=C(C(Nc1ccccc1)c1ccc(C(F)(F)F)cc1)N1CCC[C@@H]1c1ccccc1Cl` (mixture of isomers): in assay [1], the 50% inhibitory concentration (IC50) (usually the concentration at which inhibition is half-maximal) was determined as 168 nM.
Still for that read-out and setting: to `O=C(C(Nc1ccccc1)c1ccc(C(F)(F)F)cc1)N1CCC[C@H]1c1ccccc1Cl` (mixture of isomers) belongs 41 nM; to `O=C(C(Nc1ccccc1F)c1ccc(C(F)(F)F)cc1)N1CCCC1c1ccccc1Cl` (racemic), 11 nM; to `O=C(C(Nc1ccccc1F)c1ccc(C(F)(F)F)cc1)N1CCC[C@@H]1c1ccccc1` (stereo partly drawn), 43 nM.
On the same count and under the same terms, to `O=C(C(Nc1ccccc1F)c1ccc(Br)cc1)N1CCC[C@H]1c1ccccc1F` (mixture of isomers) belongs 9 nM.
Turning to `O=C([C@@H](Nc1ccccc1F)c1ccc(C(F)(F)F)cc1)N1CCC[C@H]1c1ccccc1F`, the inhibition in vivo – broadly, the change of the read-out against control, counted positive when it falls – at 30 mg/kg in the assay with Rattus norvegicus is 99%. In assay [1], the IC50 worked out at 6 nM.
As to `O=C(O)c1ccc(C2CCCN2C(=O)C(Nc2ccccc2F)c2cc3ccccc3s2)cc1` (racemic), in assay [1], the IC50 came to 41 nM.
On the same count and under the same terms, to `O=C(O)c1cccc(C2CCCN2C(=O)C(Nc2ccccc2F)c2ccc(C(F)(F)F)cc2)c1` (racemic) belongs 40 nM; to `O=C(O)c1ccc(-c2ccc(C(Nc3ccccc3F)C(=O)N3CCC[C@H]3c3ccccc3F)cc2)cc1` (mixture of isomers), 56 nM.
`O=C(C(Nc1ccccc1F)c1ccc(C(F)(F)F)cc1)N1CCC[C@H]1c1ccccc1Cl` (mixture of isomers): the inhibition in vivo at 30 mg/kg in the assay on Rattus norvegicus stood at 79%. Also, the concentration for half-maximal inhibition (IC50) in assay [1] worked out at 17 nM.
Turning to `O=C([C@H](Nc1ccccc1F)c1ccc(C(F)(F)F)cc1)N1CCC[C@H]1c1ccccc1F`, the 50% inhibitory concentration (IC50) in assay [1] was 45 nM.
For `O=C(C(Nc1ccccc1F)c1ccc(C(F)(F)F)cc1)N1CCC[C@H]1c1ccccc1F` (mixture of isomers), in the assay on Rattus norvegicus, the inhibition in vivo at 30 mg/kg is 63%. In addition, the IC50 in assay [1] came out at 8 nM.
With `O=C(C(Nc1ccccc1F)c1ccc(C(F)(F)F)cc1)N1CCC[C@H]1c1ccccc1` (mixture of isomers), the inhibition in vivo at 30 mg/kg with Rattus norvegicus came to 56%. Further, the IC50 in assay [1] was found to be 5 nM.
Consider `O=C(C(Nc1ccccc1F)c1ccc(C(F)(F)F)cc1)N1CCCC1c1ccccc1F` (racemic), for which, in assay [1], the IC50 was determined as 7 nM.
Still for that read-out and setting: to `O=C(C(Nc1ccccc1F)c1ccc(C(F)(F)F)cc1)N1CCC[C@@H]1c1ccccc1F` (mixture of isomers) belongs 44 nM.
On the same count and under the same terms, to `O=C(C(Nc1ccccc1F)c1cc2ccccc2s1)N1CCC[C@H]1c1ccccc1F` (mixture of isomers) belongs 3 nM.
Take `O=C(C(Nc1ccccc1F)c1ccc(-c2ccncc2)cc1)N1CCCC1c1ccccc1F` (racemic): the IC50 in assay [1] was found to be 25 nM.
In the case of `O=C(C(Nc1ccccc1F)c1ccc(-c2cccnc2)cc1)N1CCC[C@H]1c1ccccc1F` (mixture of isomers), the inhibition in vivo at 30 mg/kg with Rattus norvegicus is -13%. Also, the IC50 in assay [1] was found to be 7 nM.
